Drawing on ChEMBL document CHEMBL1126942, “Synthesis and antibacterial activity of a new series of tetracyclic pyridone carboxylic acids” (J Med Chem, 1993), this text covers MIC and IC50 for five compounds.

Values after ≈ are worked out from the molar mass of the structure shown.

Common to all, as to format: functional
Assay [1] concerns Escherichia coli. The assay is described as follows: Tested in vitro for antibacterial activity agains Escherichia coli (NIHJ JC-2).
The subject of assay [2] is Escherichia coli. The assay is described as follows: Tested in vitro for antibacterial activity against Escherichia coli (KC-14).
For assay [3], the system named is Staphylococcus epidermidis. The assay is described as follows: Tested in vitro for antibacterial activity against Staphylococcus epidermidis (IAM 1296).
Another assay has as its system Klebsiella pneumoniae. The experiment in a line: Tested in vitro for antibacterial activity against Klebsiella pneumoniae (B54).
The subject of assay [4] is Staphylococcus aureus. The experiment in a line: Tested in vitro for antibacterial activity against Staphylococcus aureus (FDA 209P JC-1).
In assay [5] the test system is Staphylococcus aureus. The experiment in a line: Tested in vitro for antibacterial activity against Staphylococcus aureus (IID 803).
The test system of assay [6] is Escherichia coli. The assay is described as follows: Tested for inhibitory activity against DNA gyrase supercoiling in Escherichia coli (KL-16).
For a further assay, the system named is Enterococcus faecalis. The assay is described as follows: Tested in vitro for antibacterial activity agains Enterococcus faecalis (IID 682).
Assay [7] concerns Pseudomonas aeruginosa. The experiment in a line: Tested in vitro for antibacterial activity against Pseudomonas aeruginosa (E-2).
Assay [8] relates to Pseudomonas aeruginosa. The assay is described as follows: Tested in vitro for antibacterial activity against Pseudomonas aeruginosa (IFO 3445).

Turning to `CN1CCN(c2c(F)cc3c(=O)c(C(=O)O)c4n5c3c2N(C)CC5CS4)CC1.Cl` (stereo unspecified), the MIC – broadly, the smallest concentration in the dilution series that meets the test's criterion for growth inhibition – came out at 0.78 µg/mL with Escherichia coli [1]; 0.78 µg/mL with Escherichia coli [2]; 0.78 µg/mL in assay [3]; 0.39 µg/mL with Klebsiella pneumoniae; 0.78 µg/mL in the assay on Staphylococcus aureus [4]; 0.39 µg/mL in the assay on Staphylococcus aureus [5]. The MIC with Enterococcus faecalis turned out to be 1.56 µg/mL; in the assay with Pseudomonas aeruginosa [7], 6.25 µg/mL; against Pseudomonas aeruginosa [8] it was 6.25 µg/mL. For the same compound, in the assay on Escherichia coli [6], the IC50 (usually the concentration that gives 50% inhibition) came out at 0.53 µg/mL.

Consider `CN1CCN(c2c(F)cc3c(=O)c(C(=O)O)c4n5c3c2OCC5CS4)CC1.Cl` (stereo unspecified), for which the minimal inhibitory concentration (MIC) against Escherichia coli [1] came out at 0.05 µg/mL; against Escherichia coli [2], 0.025 µg/mL; in [3] it was 0.2 µg/mL; against Klebsiella pneumoniae, 0.05 µg/mL; in the assay on Staphylococcus aureus [4] it was 0.1 µg/mL; in the assay on Staphylococcus aureus [5], 0.1 µg/mL. The MIC was determined as 0.78 µg/mL with Enterococcus faecalis, 1.56 µg/mL against Pseudomonas aeruginosa [7] and 1.56 µg/mL against Pseudomonas aeruginosa [8]. In the assay with Escherichia coli [6], this compound registered an IC50 of 0.33 µg/mL.

For `CN1CCN(c2c(F)cc3c(=O)c(C(=O)O)c4n5c3c2C(=O)CC5CS4)CC1.Cl` (stereo unspecified), the MIC turned out to be 0.78 µg/mL in the assay with Escherichia coli [1]; 0.39 µg/mL in the assay on Escherichia coli [2]; 3.13 µg/mL in assay [3]; 0.78 µg/mL in the assay with Klebsiella pneumoniae; 0.78 µg/mL with Staphylococcus aureus [4]; 0.78 µg/mL against Staphylococcus aureus [5]. Further, the MIC against Enterococcus faecalis was 3.13 µg/mL; with Pseudomonas aeruginosa [7], 3.13 µg/mL; in the assay on Pseudomonas aeruginosa [8], 6.25 µg/mL. Further, half-maximal inhibition in the assay on Escherichia coli [6] (IC50) required 0.67 µg/mL.

Consider `CN1CCN(c2c(F)cc3c(=O)c(C(=O)O)c4n5c3c2SCC5CO4)CC1.Cl` (stereo unspecified), for which the minimum inhibitory concentration (MIC) against Escherichia coli [1] was 1.56 µg/mL; with Escherichia coli [2] it was 1.56 µg/mL; in assay [3], 6.25 µg/mL; in the assay with Klebsiella pneumoniae it was 1.56 µg/mL; in the assay with Staphylococcus aureus [4], 1.56 µg/mL; against Staphylococcus aureus [5], 3.13 µg/mL. Besides, the MIC with Enterococcus faecalis is 6.25 µg/mL; against Pseudomonas aeruginosa [7], 60 µg/mL; in the assay on Pseudomonas aeruginosa [8] it was 50 µg/mL. For the same compound, the IC50 in the assay with Escherichia coli [6] amounted to 2.61 µg/mL.

As for `CC1COc2c(N3CCN(C)CC3)c(F)cc3c(=O)c(C(=O)O)cn1c23` (stereo unspecified) [OFLOXACIN], the IC50 in the assay with Escherichia coli [6] came to 0.53 µg/mL (≈ 1.47 µM).
